The structures appear in SMILES notation.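 Exposure lasted 48 hours, with cells grown in 96-well plates and compounds tested at five concentrations. GI50 = concentration required for 50% inhibition of growth.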 The source made the active and inactive calls. Cut-off read from the data, not from the text of the source: active = GI50 up to about 1.1 µM and inactive = higher. Where only a bound is given, the exact number is not on record here.

The record followed here is ChEMBL document CHEMBL1201862, “PubChem BioAssay data set” (2004).

Test systems include HCT-15; HCC 2998; COLO 205; NCI-H23; OVCAR-3; SNB-75; HOP-62; ACHN; Malme-3M; RXF 393; UO-31; KM12; SK-OV-3; IGROV-1; CCRF-CEM; SR.
Experiment in all cases: growth of human tumour cells (NCI), 48 h

As for `Cc1nc(-n2nc(-c3ccccc3)cc2-c2ccccc2)sc1C(=O)/C=C/c1ccc(Cl)cc1`, the GI50 was 22.2 µM in the assay with HCT-15; 16.4 µM (inactive) with HCC 2998; 16.5 µM (inactive) in the assay with COLO 205; 16.3 µM (inactive) in the assay on NCI-H23; 15.9 µM (inactive) in the assay with OVCAR-3; 6.1 µM (inactive) in the assay on SNB-75. For the same molecule, the GI50 in the assay with HOP-62 was 13.3 µM (inactive); with ACHN, 20.7 µM (inactive); with Malme-3M, 22.4 µM (inactive); with RXF 393, 12.7 µM (inactive); in the assay with UO-31, 9.06 µM (inactive); in the assay on KM12 it was 11.7 µM (inactive). The GI50 in the assay on SK-OV-3 is 28.1 µM (inactive); in the assay on IGROV-1, 27.7 µM (inactive); with CCRF-CEM, 17.3 µM (inactive).

For the molecule `CCOC(=O)C(=O)C1C(=O)Nc2ccccc21` (centres undefined), the GI50 with HCC 2998, in the assay on COLO 205, in the assay with NCI-H23, in the assay with OVCAR-3, in the assay with SNB-75 and with HOP-62 was > 100 µM (inactive) throughout. Further, the GI50 in the assay on ACHN, in the assay on Malme-3M, in the assay with RXF 393, in the assay with UO-31, in the assay with KM12 and with IGROV-1 was > 100 µM (inactive) throughout. The GI50 in the assay with CCRF-CEM is > 100 µM (inactive).

Turning to `CCCCCC1CC=CC(NC(=O)OCc2ccccc2)C1/C=C/CCCC1OCCO1` (centres undefined), the GI50 was 86.7 µM in the assay with HCT-15; 78.3 µM (inactive) in the assay with HCC 2998; 44.2 µM (inactive) in the assay with COLO 205; 44.7 µM (inactive) in the assay on NCI-H23; 38.5 µM (inactive) in the assay with OVCAR-3; > 56 µM (inactive) with SNB-75. The GI50 in the assay on HOP-62 was > 100 µM (inactive); in the assay on ACHN, 24.1 µM (inactive); in the assay on Malme-3M, 50.6 µM (inactive); in the assay with RXF 393, 15.1 µM (inactive); in the assay with UO-31, 13.1 µM (inactive); in the assay with KM12, 48 µM (inactive). The values for the GI50 with SK-OV-3, with IGROV-1 and in the assay with CCRF-CEM were > 100 µM (inactive), > 100 µM (inactive) and 47.5 µM (inactive), respectively.

On to `C/C(=N\NC(=O)c1ccccc1O)C1=CNc2ccccc2S1`, for which the GI50 in the assay on HCC 2998 is 2.98 µM (inactive); in the assay on NCI-H23, 3.6 µM (inactive); in the assay with OVCAR-3, 3.01 µM (inactive); in the assay with SNB-75 it was 8.2 µM (inactive); with HOP-62, 4.59 µM (inactive); with ACHN it was 4.56 µM (inactive). For the same molecule, the GI50 was 3.1 µM (inactive) in the assay on Malme-3M; 3.82 µM (inactive) in the assay with SR; 2.14 µM (inactive) in the assay with UO-31; 3.94 µM (inactive) in the assay on KM12; 15.6 µM (inactive) with SK-OV-3; 5.92 µM (inactive) with IGROV-1. Also, the GI50 with CCRF-CEM was 3.35 µM (inactive).

For `Cn1ncc(=S)[nH]c1=S`, the GI50 in the assay on HCT-15 was greater than 100 µM; in the assay with COLO 205, > 100 µM (inactive); in the assay on NCI-H23 it was > 100 µM (inactive); in the assay with OVCAR-3, > 100 µM (inactive); in the assay with SNB-75 it was 97.7 µM (inactive); with HOP-62, > 100 µM (inactive). Besides, the GI50 with ACHN, in the assay with Malme-3M, in the assay with RXF 393, in the assay with UO-31, in the assay on SK-OV-3 and with IGROV-1 was > 100 µM (inactive) throughout. Further, the GI50 with CCRF-CEM is > 100 µM (inactive).

As to `CCCCCn1cnc2c1S(=O)(=O)N(C)C(NC(=O)c1ccccc1)=N2`, the GI50 in the assay on HCT-15 is greater than 100 µM; in the assay with HCC 2998, > 100 µM (inactive); in the assay on COLO 205, > 100 µM (inactive); with NCI-H23, > 100 µM (inactive); with OVCAR-3, > 100 µM (inactive); in the assay on SNB-75 it was > 100 µM (inactive). Further, the GI50 in the assay on HOP-62, in the assay on ACHN, in the assay on SR, in the assay with UO-31, in the assay with KM12 and with SK-OV-3 was > 100 µM (inactive) in each case. Further, the GI50 with IGROV-1 and in the assay on CCRF-CEM was > 100 µM (inactive) each time.

For `CN(C)C(=N)NC(N)=S`, the GI50 is greater than 100 µM with HCT-15; > 100 µM (inactive) in the assay with HCC 2998; > 100 µM (inactive) in the assay on COLO 205; > 100 µM (inactive) in the assay on NCI-H23; > 100 µM (inactive) in the assay with OVCAR-3; > 100 µM (inactive) with SNB-75. The GI50 in the assay on HOP-62, with ACHN, in the assay on Malme-3M, in the assay with SR, in the assay with RXF 393 and in the assay with UO-31 was > 100 µM (inactive) in each case. Further, the GI50 in the assay on KM12, in the assay with SK-OV-3 and in the assay with IGROV-1 was > 100 µM (inactive) in each case.

Regarding `CCOc1ccccc1NC(=O)CCc1n[nH]c(=S)o1`, the GI50 in the assay on NCI-H23, in the assay with OVCAR-3, with SNB-75, in the assay on ACHN, with Malme-3M and with SR was > 100 µM (inactive) each time. Besides, the GI50 with UO-31 was 63.4 µM (inactive); in the assay on KM12, > 100 µM (inactive); in the assay on SK-OV-3, > 100 µM (inactive); in the assay on IGROV-1, > 10 µM (inactive); in the assay with CCRF-CEM, > 100 µM (inactive).

Turning to `CC(=O)OCC1OC(n2c(=S)n(-c3ccccc3)c(=O)c3cc(Br)ccc32)C(OC(C)=O)C(OC(C)=O)C1OC(C)=O` (centres undefined), the GI50 in the assay with HCT-15 was greater than 100 µM; in the assay on HCC 2998 it was > 100 µM (inactive); in the assay on COLO 205 it was > 100 µM (inactive); with NCI-H23, > 100 µM (inactive); with OVCAR-3, > 100 µM (inactive); in the assay on HOP-62 it was > 100 µM (inactive). Further, the GI50 with ACHN, in the assay on UO-31, in the assay with KM12, with SK-OV-3, with IGROV-1 and in the assay on CCRF-CEM was > 100 µM (inactive) in each case.

Consider `CC1=Nn2c(nnc2-c2ccccc2Cl)NC(C)(C)C1`, for which the GI50 in the assay with HCT-15 is 51.9 µM; in the assay with HCC 2998, > 100 µM (inactive); in the assay on COLO 205, 54.2 µM (inactive); with NCI-H23, > 100 µM (inactive); in the assay on SNB-75 it was > 100 µM (inactive); in the assay on HOP-62 it was > 100 µM (inactive). In addition, the GI50 is > 100 µM (inactive) in the assay with ACHN; 25.5 µM (inactive) with SR; > 100 µM (inactive) in the assay on UO-31; > 100 µM (inactive) in the assay with KM12; > 100 µM (inactive) with SK-OV-3; > 100 µM (inactive) in the assay with IGROV-1. The GI50 in the assay on CCRF-CEM was 34.2 µM (inactive).

For the molecule `C=CC/C=C/C/C=C/CCCCCCCc1cccc(O)c1C(=O)O`, the GI50 is 48 µM with HCT-15; 58.7 µM (inactive) in the assay on HCC 2998; > 100 µM (inactive) with COLO 205; 29.6 µM (inactive) with NCI-H23; 35.4 µM (inactive) in the assay with OVCAR-3; 43.4 µM (inactive) in the assay with SNB-75. Besides, the GI50 in the assay with HOP-62 is 14.4 µM (inactive); with ACHN, 44.2 µM (inactive); with Malme-3M it was 47.6 µM (inactive); with SR, > 100 µM (inactive); in the assay on UO-31, 25.2 µM (inactive); in the assay on KM12, 64 µM (inactive). Besides, the GI50 in the assay on SK-OV-3 is 25.2 µM (inactive); with IGROV-1, 33.6 µM (inactive); in the assay on CCRF-CEM, 30.3 µM (inactive).
